This note sets out measurements from patent US10077277B2, “Bicyclic heteroarylaminoalkyl phenyl derivatives as PI3K inhibitors” (Incyte Corporation, priority 2014, dated 2018).

Counter-ions that a name gives are not always drawn.

Type in all cases: biochemical
In one assay the target is PI3Kδ (p110δ/p85α) (Homo sapiens (Human), UniProt O00329). The experiment in a line: PI3Kδ scintillation proximity assay (Example A3). The settings on record: Assay A3, 20 μM ATP. The source says: Example A3: PI3Kδ Scintillation Proximity Assay
[γ-^33P]ATP (10 mCi/mL) was purchased from PerkinElmer (Waltham, Mass.). Lipid kinase substrate, D-myo-Phosphatidylinositol 4,5-bisphosphate (PtdIns(4,5)P2)D (+)-sn-1,2-di-O-octanoylglyceryl, 3-O-phospho linked (PIP2), CAS 204858-53-7, was purchased from Echelon Biosciences (Salt Lake City, Utah). PI3Kδ (p110δ/p85α) was purchased from Millipore (Bedford, Mass.). ATP, MgCl2, DTT, EDTA, MOPS and CHAPS were purchased from SigmaAldrich (St. Louis, Mo.). Wheat Germ Agglutinin (WGA) YSi SPA Scintillation Beads was purchased from GE healthcare life sciences (Piscataway, N.J.).
The kinase reaction was conducted in polystyrene 384-well matrix white plate from Thermo Fisher Scientific in a final volume of 25 μL. Inhibitors were first diluted serially in DMSO and added to the plate wells before the addition of other reaction components. The final concentration of DMSO in the assay was 0.5%. The PI3K assays were carried out at room temperature in 20 mM MOPS, pH 6.7, 10 mM MgCl2, 5 mM DTT and CHAPS 0.03%. Reactions were initiated by the addition of ATP, the final reaction mixture consisted of 20 μM PIP2, 20 μM ATP, 0.2 μCi [γ-^33P] ATP, 4 nM PI3Kδ. Reactions were incubated for 210 min and terminated by the addition of 40 μL SPA beads suspended in quench buffer: 150 mM potassium phosphate pH 8.0, 20% glycerol. 25 mM EDTA, 400 μM ATP. The final concentration of SPA beads was 1.0 mg/mL. After the plate sealing, plates were shaken overnight at room temperature and centrifuged at 1800 rpm for 10 minutes, the radioactivity of the product was determined by scintillation counting on Topcount (PerkinElmer). IC50 determination was performed by fitting the curve of percent control activity versus the log of the inhibitor concentration using the GraphPad Prism 3.0 software. IC50 data for the Examples is presented in Table 2 as determined by Assay A3.
(Scintillation proximity formats need no separation of bound from free tracer.)

A further assay addresses human JAK2 (Homo sapiens (Human), UniProt O60674). As to the kind of experiment: In vitro JAK kinase assay (Example J), JAK2. To be noted: ratio of IC50s, Assay J at 1 mM ATP.
For a further assay, the target named is human JAK1 (Homo sapiens, UniProt P23458). The experiment in a line: In vitro JAK kinase assay (Example J), JAK1. To be noted: Assay J at 1 mM ATP.

human JAK2, sequence (O60674 828-1132): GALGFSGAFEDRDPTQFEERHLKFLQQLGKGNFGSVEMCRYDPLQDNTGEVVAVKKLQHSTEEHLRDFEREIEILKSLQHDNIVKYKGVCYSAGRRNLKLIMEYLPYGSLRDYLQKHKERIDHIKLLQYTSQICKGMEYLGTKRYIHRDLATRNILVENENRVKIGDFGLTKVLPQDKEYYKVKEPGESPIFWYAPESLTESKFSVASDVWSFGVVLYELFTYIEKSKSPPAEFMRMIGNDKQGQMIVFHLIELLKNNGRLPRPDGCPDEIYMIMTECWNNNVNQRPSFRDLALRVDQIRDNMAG
PI3Kδ (p110δ/p85α), sequence (O00329 whole entry): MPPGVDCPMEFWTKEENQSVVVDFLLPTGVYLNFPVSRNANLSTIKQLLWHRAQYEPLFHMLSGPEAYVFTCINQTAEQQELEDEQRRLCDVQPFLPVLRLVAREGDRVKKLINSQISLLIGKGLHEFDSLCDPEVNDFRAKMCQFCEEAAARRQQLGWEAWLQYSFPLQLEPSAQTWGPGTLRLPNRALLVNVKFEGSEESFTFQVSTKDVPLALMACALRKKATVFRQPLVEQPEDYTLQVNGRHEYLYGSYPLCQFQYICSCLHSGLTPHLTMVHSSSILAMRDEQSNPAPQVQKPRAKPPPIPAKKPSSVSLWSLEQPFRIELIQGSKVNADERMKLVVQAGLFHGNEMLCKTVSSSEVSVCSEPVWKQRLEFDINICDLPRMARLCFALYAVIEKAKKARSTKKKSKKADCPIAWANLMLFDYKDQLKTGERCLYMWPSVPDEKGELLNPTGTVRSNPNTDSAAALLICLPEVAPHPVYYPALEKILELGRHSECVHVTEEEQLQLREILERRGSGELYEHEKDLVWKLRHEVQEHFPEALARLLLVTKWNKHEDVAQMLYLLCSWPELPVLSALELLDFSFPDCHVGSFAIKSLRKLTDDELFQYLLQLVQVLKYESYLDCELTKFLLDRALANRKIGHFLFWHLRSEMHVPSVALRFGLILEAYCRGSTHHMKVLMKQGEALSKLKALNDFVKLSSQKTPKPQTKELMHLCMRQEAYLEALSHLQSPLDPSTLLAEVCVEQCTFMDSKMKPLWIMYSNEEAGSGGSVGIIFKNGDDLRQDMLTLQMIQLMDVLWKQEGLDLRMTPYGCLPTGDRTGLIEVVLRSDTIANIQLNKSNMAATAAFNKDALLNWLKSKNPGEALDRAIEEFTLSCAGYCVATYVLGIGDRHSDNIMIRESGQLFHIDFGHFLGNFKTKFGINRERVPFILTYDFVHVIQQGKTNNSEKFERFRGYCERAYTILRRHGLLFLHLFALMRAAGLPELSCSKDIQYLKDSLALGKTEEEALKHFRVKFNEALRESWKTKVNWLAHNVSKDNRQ
PI3Kδ (p110δ/p85α), sequence (P27986 whole entry partner): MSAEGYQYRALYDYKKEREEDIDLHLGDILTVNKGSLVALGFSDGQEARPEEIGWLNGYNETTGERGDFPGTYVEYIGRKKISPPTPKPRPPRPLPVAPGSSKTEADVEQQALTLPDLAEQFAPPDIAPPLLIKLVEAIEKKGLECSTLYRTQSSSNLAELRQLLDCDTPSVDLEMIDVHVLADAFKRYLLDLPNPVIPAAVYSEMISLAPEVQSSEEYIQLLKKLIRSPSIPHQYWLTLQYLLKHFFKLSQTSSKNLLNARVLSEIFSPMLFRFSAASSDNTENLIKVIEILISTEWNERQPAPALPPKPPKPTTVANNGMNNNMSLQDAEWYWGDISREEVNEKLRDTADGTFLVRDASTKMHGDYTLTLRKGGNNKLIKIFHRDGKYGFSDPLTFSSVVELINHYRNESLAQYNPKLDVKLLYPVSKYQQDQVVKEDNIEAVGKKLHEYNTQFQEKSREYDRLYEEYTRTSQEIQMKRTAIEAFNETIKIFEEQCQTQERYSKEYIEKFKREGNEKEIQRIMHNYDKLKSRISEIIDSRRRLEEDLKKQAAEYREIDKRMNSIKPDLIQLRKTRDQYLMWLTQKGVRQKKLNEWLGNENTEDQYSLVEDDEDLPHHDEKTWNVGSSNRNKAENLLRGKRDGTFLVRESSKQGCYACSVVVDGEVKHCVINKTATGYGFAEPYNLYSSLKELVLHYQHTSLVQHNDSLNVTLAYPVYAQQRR

With `CCOc1c(C(C)Nc2ncnc3scnc23)cc(Cl)c(F)c1C1CNC(=O)C1` (single isomer, unassigned) [Example 1B, 4-{3-chloro-6-ethoxy-2-fluoro-5-[1-([1,3]thiazolo[5,4-d]pyrimidin-7-ylamino)ethyl]phenyl}pyrrolidin-2-one], the IC50 – broadly, the concentration that gives 50% inhibition – against PI3Kδ (p110δ/p85α) is 100 to 400 nM.

On to `CCOc1c(C(C)Nc2ncnc3scnc23)cc(Cl)c(F)c1C1CNC(=O)C1` (single isomer, unassigned) [Example 1D, 4-{3-chloro-6-ethoxy-2-fluoro-5-[1-([1,3]thiazolo[5,4-d]pyrimidin-7-ylamino)ethyl]phenyl}pyrrolidin-2-one], for which, on PI3Kδ (p110δ/p85α), the IC50 lay within 100 to 400 nM.

Turning to `CCOc1c([C@@H](C)Nc2ncnc3cccnc23)cc(Cl)c(F)c1[C@@H]1CNC(=O)C1` (single isomer, unassigned) [Example 2B, 4-{3-chloro-6-ethoxy-2-fluoro-5-[1-(pyrido[3,2-d]pyrimidin-4-ylamino)ethyl]phenyl}pyrrolidin-2-one], at PI3Kδ (p110δ/p85α), the IC50 is 100 to 400 nM.

`CCOc1c([C@@H](C)Nc2ncnc3cccnc23)cc(Cl)c(F)c1[C@@H]1CNC(=O)C1` (single isomer, unassigned) [Example 2D, 4-{3-chloro-6-ethoxy-2-fluoro-5-[1-(pyrido[3,2-d]pyrimidin-4-ylamino)ethyl]phenyl}pyrrolidin-2-one]: on PI3Kδ (p110δ/p85α), the IC50 was 100 to 400 nM.

`CCOc1c(C(C)Nc2ncnc3scnc23)cc(Cl)c(F)c1C1CNC(=O)C1` (stereo not shown) [Example 1, 4-{3-Chloro-6-ethoxy-2-fluoro-5-[1-([1,3]thiazolo[5,4-d]pyrimidin-7-ylamino)ethyl]phenyl}pyrrolidin-2-one trifluoroacetate]: at PI3Kδ (p110δ/p85α), the IC50 is at most 100 nM. Also, the JAK2/JAK1 at human JAK2 is over 10. As to `CCOc1c(C(C)Nc2ncnc3cccnc23)cc(Cl)c(F)c1C1CNC(=O)C1` (stereo not shown) [Example 2, 4-{3-Chloro-6-ethoxy-2-fluoro-5-[1-(pyrido[3,2-d]pyrimidin-4-ylamino)ethyl]phenyl}pyrrolidin-2-one], the IC50 at PI3Kδ (p110δ/p85α) was at most 100 nM.

In turn, `N#CCC(CN1CCN(C(=O)c2ccc(C#N)cc2F)CC1)n1cc(-c2ncnc3[nH]ccc23)cn1` (stereo not shown) [Example 5] came in with a half-maximal inhibitory concentration (IC50) against human JAK1 of under 10 nM. Moreover, the JAK2/JAK1 at human JAK2 is over 10.

As for `N#CCC(CN1CCN(C(=O)c2ccc(C#N)cc2F)CC1)n1cc(-c2ncnc3[nH]ccc23)cn1` (stereo not shown) [Example 6], on human JAK2, the JAK2/JAK1 was over 10. In turn, `N#CCC1(n2cc(-c3ncnc4[nH]ccc34)cn2)CN(C2CCN(C(=O)c3ccnc(C(F)(F)F)c3F)CC2)C1` [Example 7, {1-{1-[3-Fluoro-2-(trifluoromethyl)isonicotinoyl]piperidin-4-yl}-3-[4-(7H-pyrrolo[2,3-d]pyrimidin-4-yl)-1H-pyrazol-1-yl]azetidin-3-yl}acetonitrile] had an IC50 at human JAK1 of under 10 nM. Besides, the JAK2/JAK1 on human JAK2 was over 10.

Compound `N#CCC1(n2cc(-c3ncnc4[nH]ccc34)cn2)CN(C2CCN(C(=O)Nc3ccc(F)cc3C(F)(F)F)CC2)C1` [Example 8, 4-{3-(Cyanomethyl)-3-[4-(7H-pyrrolo[2,3-d]pyrimidin-4-yl)-1H-pyrazol-1-yl]azetidin-1-yl}-N-[4-fluoro-2-(trifluoromethyl)phenyl]piperidine-1-carboxamide] showed an IC50 against human JAK1 of under 10 nM. In addition, the JAK2/JAK1 on human JAK2 was over 10.

Regarding `N#CCC1(n2cc(-c3ncnc4[nH]ccc34)cn2)CN(C2CCN(C(=O)c3ccnc(C(F)(F)F)n3)CC2)C1` [Example 9, [3-[4-(7H-pyrrolo[2,3-d]pyrimidin-4-yl)-1H-pyrazol-1-yl]-1-(1-{[2-(trifluoromethyl)pyrimidin-4-yl]carbonyl}piperidin-4-yl)azetidin-3-yl]acetonitrile], at human JAK1, the IC50 is under 10 nM. Also, the JAK2/JAK1 on human JAK2 is over 10.

On to `N#CC[C@]1(n2cc(-c3ncnc4[nH]ccc34)cn2)C[C@H](N2CCN(C(=O)c3ccnc(C(F)(F)F)n3)CC2)C1` [Example 10], for which the IC50 on human JAK1 is under 10 nM. Moreover, the JAK2/JAK1 at human JAK2 was over 10. Taken in the same sequence, the figures for `N#CC[C@]1(n2cc(-c3ncnc4[nH]ccc34)cn2)C[C@H](N2CCC(Oc3cc(CN4CC(O)C4)cc(C(F)(F)F)n3)CC2)C1` [Example 11] were under 10 nM and over 10. Compound `N#CC[C@]1(n2cc(-c3ncnc4[nH]ccc34)cn2)C[C@H](N2CCC(Oc3cc(CN4CCC[C@H]4CO)cc(C(F)(F)F)n3)CC2)C1` [Example 12] returned an IC50 against human JAK1 of under 10 nM. Also, the JAK2/JAK1 at human JAK2 is over 10. Taken in the same sequence, the figures for `N#CC[C@]1(n2cc(-c3ncnc4[nH]ccc34)cn2)C[C@H](N2CCC(Oc3cc(CN4CCC[C@@H]4CO)cc(C(F)(F)F)n3)CC2)C1` [Example 13] were under 10 nM and over 10.

Consider `C[C@H](NC(=O)c1cc(F)c(N2CC(CC#N)(n3cc(-c4ncnc5[nH]ccc45)cn3)C2)cc1F)C(F)(F)F` [Example 16], for which, on human JAK1, the IC50 is under 10 nM. For the same compound, the JAK2/JAK1 on human JAK2 is reported as over 10.

On human JAK1, `N#CCC1(n2cc(-c3ncnc4[nH]ccc34)cn2)CN([C@H]2CC[C@@H](Oc3cc(CCO)nc(C(F)(F)F)n3)CC2)C1` [Example 18, {1-(cis-4-{[6-(2-hydroxyethyl)-2-(trifluoromethyl)pyrimidin-4-yl]oxy}cyclohexyl)-3-[4-(7H-pyrrolo[2,3-d]pyrimidin-4-yl)-1H-pyrazol-1-yl]azetidin-3-yl}acetonitrile] came in with a 50% inhibitory concentration (IC50) of under 10 nM. Besides, at human JAK2, the JAK2/JAK1 is on record as over 10. The like results for `CCNCc1cc(O[C@H]2CC[C@@H](N3CC(CC#N)(n4cc(-c5ncnc6[nH]ccc56)cn4)C3)CC2)nc(C(F)(F)F)c1` [Example 19, {1-(cis-4-{[4-[(ethylamino)methyl]-6-(trifluoromethyl)pyridin-2-yl]oxy}cyclohexyl)-3-[4-(7H-pyrrolo[2,3-d]pyrimidin-4-yl)-1H-pyrazol-1-yl]azetidin-3-yl}acetonitrile] were, in that order, under 10 nM and over 10.

On to `CC(C)(O)c1cc(O[C@H]2CC[C@@H](N3CC(CC#N)(n4cc(-c5ncnc6[nH]ccc56)cn4)C3)CC2)nc(C(F)(F)F)c1` [Example 20, {1-(cis-4-{[4-(1-hydroxy-1-methylethyl)-6-(trifluoromethyl)pyridin-2-yl]oxy}cyclohexyl)-3-[4-(7H-pyrrolo[2,3-d]pyrimidin-4-yl)-1H-pyrazol-1-yl]azetidin-3-yl}acetonitrile], for which the IC50 at human JAK1 was under 10 nM. Moreover, the JAK2/JAK1 at human JAK2 is on record as over 10. Taken in the same sequence, the figures for `N#CCC1(n2cc(-c3ncnc4[nH]ccc34)cn2)CN([C@H]2CC[C@@H](Oc3cc(CN4CC[C@@H](O)C4)cc(C(F)(F)F)n3)CC2)C1` [Example 21] were under 10 nM and over 10.

For `N#CCC1(n2cc(-c3ncnc4[nH]ccc34)cn2)CN([C@H]2CC[C@@H](Oc3cc(CN4CC[C@H](O)C4)cc(C(F)(F)F)n3)CC2)C1` [Example 22, {1-(cis-4-{[4-{[(3S)-3-hydroxypyrrolidin-1-yl]methyl}-6-(trifluoromethyl)pyridin-2-yl]oxy}cyclohexyl)-3-[4-(7H-pyrrolo[2,3-d]pyrimidin-4-yl)-1H-pyrazol-1-yl]azetidin-3-yl}acetonitrile], the IC50 against human JAK1 was under 10 nM. Moreover, the JAK2/JAK1 at human JAK2 is over 10.

At human JAK1, `C[C@@H](CO)NCc1cc(OC2CCN([C@H]3C[C@](CC#N)(n4cc(-c5ncnc6[nH]ccc56)cn4)C3)CC2)nc(C(F)(F)F)c1` [Example 23] came in with a 50% inhibitory concentration (IC50) of under 10 nM. For the same compound, the JAK2/JAK1 at human JAK2 was over 10. The compound `C[C@@H](O)CNCc1cc(OC2CCN([C@H]3C[C@](CC#N)(n4cc(-c5ncnc6[nH]ccc56)cn4)C3)CC2)nc(C(F)(F)F)c1` [Example 24] had an IC50 at human JAK1 of under 10 nM. In addition, the JAK2/JAK1 on human JAK2 is reported as over 10. Taken in the same sequence, the figures for `C[C@H](O)CNCc1cc(OC2CCN([C@H]3C[C@](CC#N)(n4cc(-c5ncnc6[nH]ccc56)cn4)C3)CC2)nc(C(F)(F)F)c1` [Example 25] were under 10 nM and over 10.

On human JAK1, `N#CC[C@]1(n2cc(-c3ncnc4[nH]ccc34)cn2)C[C@H](N2CCC(Oc3cc(CCO)cc(C(F)(F)F)n3)CC2)C1` [Example 26] registered an IC50 of under 10 nM. Moreover, the JAK2/JAK1 at human JAK2 is over 10. Taken in the same sequence, the figures for `N#CCC(C1CCN(c2cccc(Cl)n2)C1)n1cc(-c2ncnc3[nH]ccc23)cn1` (stereo not shown) [bis(trifluoroacetate)] were under 10 nM and over 10.
